{"source": "patent US20260355239A1", "about": "“COMBINATION OF A T CELL THERAPY AND CONTINUOUS OR INTERMITTENT DGK INHIBITOR DOSING” (Juno Therapeutics, Inc., priority 2022, published 2026)", "key": {"Nalm6-rFluc cells": {"test_system": "Nalm6-rFluc cells", "test": "Tumor cell re-challenge after CAR T cell combination, Nalm6-rFluc (Example 11)", "assay_type": "in vivo, NSG mice", "method": "Mice in Example 10 who received the CAR T cell combination with continuous Compound 17 dosing regimen were re-challenged by intravenous injection of 5×10^6 Nalm6-rFluc cells on Day 71. For comparison, 5×10^6 Nalm6-rFluc cells were intravenously injected into naive mice that had not previously been injected with or administered Nalm6-rFluc cells, CAR T cells, or Compound 17 (n=4 per group). […] Tumor burden was assessed for 10 days following re-challenge. Survival of treated mice was assessed until 30 days post re-challenge."}, "T cells": {"test_system": "T cells", "test": "T cell function and exhaustion of engineered T cells in presence of DGKi (summary of observations)", "assay_type": "cell-based, human", "from_the_text": "In some aspects, the provided methods enhance or modulate proliferation and/or activity of T cell activity associated with administration of the T cell therapy (e.g. CAR-expressing T cells).\nThus, while in some cases agents that increase or potentiate T cell activity may drive the cells to an exhausted state, it is found herein that activity of such DGKi, e.g., Compound 17, to exert a potentiating effect on T cell activity is decoupled from T cell exhaustion. In some embodiments, the provided methods involving compound administration of such DGKi, e.g., Compound 17, is capable of potentiating activity of T cells and delaying, limiting, reducing, inhibiting or preventing exhaustion.\nThese observations were made using a chronic stimulation assay to render T cells (e.g. CAR T cells) hypofunctional (e.g. reduced cytolysis and IL-2 secretion). Using this model, engineered T cells (e.g. CAR T cells or eTCR T cells) were examined to assess impact of DGKi, such as Compound 17, on function of the engineered T cells when present during (concurrent) or following (rescue) exposure to conditions leading to a hypofunctional, exhaustive state."}, "anti-CD19 CAR T cells": {"test_system": "anti-CD19 CAR T cells", "test": "In vivo expansion and/or persistence of CAR T cells from different donors, Raji-rFluc NSG mice (Example 8)", "details": "0.3 mg/kg oral once daily Days 1-7, four donors, vs CAR T cells alone", "method": "The effects of Compound 17 administration on in vivo expansion and/or persistence of CAR T cells produced from different healthy donors were assessed."}, "[1]": {"test_system": "Granta-519 tumor spheroids", "test": "Rescue treatment: cytolytic activity of chronically stimulated CAR-T cells, 3D spheroids, Granta-519", "assay_type": "cell-based, human", "details": "day 9"}, "[2]": {"test_system": "Raji lymphoma tumor cells", "test": "In vivo anti-tumor effect of dosing regimens with anti-CD19 CAR T cells, Raji-rFluc NSG mice (Example 6)", "method": "The in vivo anti-tumor effects of different dosing regimens for Compound 17 in combination with anti-CD19 CAR T cells were assessed.\nFollowing CAR-T cell administration, mice received one of three different Compound 17 dosing regimens or a vehicle control (n=8 per group). Specifically, mice received Compound 17 or vehicle control once daily (i) on Days 1-14 (“Early”), (ii) on Days 14-42 (“Delayed”), or (iii) on Days 1-28 (“Continuous”) of the combination therapy. All doses of Compound 17 were 0.3 mg/kg and were administered orally. […] Flow cytometry for assessing CD4:CD8 ratio was performed at Day 15."}, "anti-CD19 CAR-T cells": {"test_system": "anti-CD19 CAR-T cells", "test": "Phenotype of chronically stimulated CAR-T cells concurrently treated", "assay_type": "cell-based, human", "details": "concurrent treatment 0.1-1000 nM, chronic stimulation 7 days", "from_the_text": "T cell compositions containing T cells expressing an exemplary anti-CD19 CAR were generated from leukapheresis samples from two healthy human adult donors by a process that included immunoaffinity-based selection of T cells by separately selecting CD4+ and CD8+ cells from the samples, resulting in two compositions enriched for CD4+ and CD8+ cells, respectively, per donor. Cells of the enriched CD4+ and CD8+ compositions were separately activated with anti-CD3/anti-CD28 beads and subjected to lentiviral transduction with a vector encoding an anti-CD19 CAR. The anti-CD19 CAR contained an anti-CD19 single-chain variable fragment (scFv) derived from a murine antibody (variable region derived from FMC63), an immunoglobulin-derived spacer, a transmembrane domain derived from CD28, a costimulatory region derived from 4-1BB, and a CD3-zeta intracellular signaling domain. The expression construct in the viral vector further contained sequences encoding a surrogate surface marker for CAR expression, which was separated from the CAR-encoding sequence by a T2A ribosome skip sequence. Transduced CD4+ or CD8+ T cell populations then were separately incubated in the presence of stimulating reagents for cell expansion. Expanded CD4+ and CD8+ cells were formulated and cryopreserved separately and stored. […]"}, "[3]": {"test_system": "engineered T cells for the T cell therapy", "test": "In vivo anti-tumor effects and CAR T cell expansion/persistence with continuous DGKi dosing (summary of observations)", "from_the_text": "Without wishing to be limited by a specific mechanism of action, the results shown herein are consistent with a finding that the continuous presence of the DGKi following T cell therapy administration may prevent or reduce exhaustion in T cells of the T cell therapy, thereby improving T cell anti-tumor activity and proliferative capacity following administration."}, "[4]": {"test_system": "anti-CD19 CAR-T cells with A549.CD19 and Granta-519 tumor spheroids", "test": "Cytokine production of chronically stimulated, concurrently treated CAR-T cells, 3D spheroids", "assay_type": "cell-based, human", "details": "concurrent treatment during chronic stimulation, five days", "method": "To simulate conditions of chronic stimulation, approximately 20,000 anti-CD19 CAR-expressing T cells of a combined CAR-T cell composition produced as described in Example 2 from two healthy adult donors were incubated with 30 µg/mL of plate-bound CAR-specific anti-idiotypic antibody (see, e.g., WO2018/023100) at 37 °C for a period of seven days. During this seven-day period, engineered CAR T cells were concurrently treated with Compound 17(0.1-1000 nM) or a vehicle control added at day 0.\nTo further assess activity of chronically stimulated cell, the chronically stimulated CAR-T cells that had been concurrently treated with DGKi were incubated with A549 CD19+ tumor spheroids or Granta-519 tumor spheroids to rechallenge the CAR-T cells at an effector to target ratio of 1:2 for up to 14 days. The tumor spheroids were engineered to express a red fluorescent dye to permit monitoring of tumor cell lysis by microscopy during the assay.\nSupernatant was collected at day 5 from the above tumor spheroid cultures with chronically stimulated CAR-expressing T cells. Cytokine production was measured from the supernatant by meso scale discovery (MSD) analysis of the collected cell supernatants. […] Duplicate values for cell compositions manufactured from the two different healthy donors are shown."}, "[5]": {"test_system": "anti-CD19 CAR-T cells with K562.CD19, Granta-519 and Raji cells", "test": "Rescue treatment: cytokine production of chronically stimulated CAR-T cells, 2D co-culture", "assay_type": "cell-based, human", "details": "48 h"}, "[6]": {"details": "0.3 mg/kg oral once daily from Day 1, relative to vehicle"}}, "data": [{"smiles": "CC[C@H]1CN([C@@H](CC)c2ccc(C(F)(F)F)cc2)[C@H](CC)CN1c1nc(=O)n(C)c2ccc(C#N)nc12", "note": "[Compound 17, 4-((2S,5R)-2,5-diethyl-4-((S)-1-(4-(trifluoromethyl)phenyl)propyl)piperazin-1-yl)-1-methyl-2-oxo-1,2-dihydropyrido[3,2-d]pyrimidine-6-carbonitrile]", "values": [{"measurement": "survival after re-challenge", "setting": "Nalm6-rFluc cells; re-challenge Day 71 after CAR T + Compound 17, until 30 days post re-challenge", "result": "survival benefit"}, {"measurement": "tumor growth after re-challenge", "setting": "Nalm6-rFluc cells; re-challenge Day 71 after CAR T + Compound 17, vs naive mice", "result": "delayed tumor growth"}, {"measurement": "T cell function (cytokine production, cytotoxicity, expansion, proliferation, persistence)", "setting": "T cells", "result": "improves T cell function"}, {"measurement": "effect on T cell exhaustion", "setting": "T cells; chronic (long-term) stimulation", "result": "reverse, delay, or prevent T cell exhaustion"}, {"measurement": "CAR T cell expansion and/or persistence", "setting": "anti-CD19 CAR T cells", "result": "CAR T cell expansion and/or persistence was increased in all mice"}, {"measurement": "cytolytic activity of CAR T cells against Granta-519 spheroids", "setting": "[1]", "result": "improved the cytolytic activity of CAR T cells against both A549.CD19 and Granta-519 tumor spheroids"}, {"measurement": "tumor suppression (tumor control index), Early regimen", "setting": "[2]; 0.3 mg/kg oral once daily Days 1-14 with CAR T cells, relative to vehicle", "result": "enhanced tumor suppression"}, {"measurement": "survival, Continuous regimen", "setting": "[2]; 0.3 mg/kg oral once daily Days 1-28 with 1×10^6 CAR T cells", "result": "improved survival"}, {"measurement": "tumor burden, Continuous regimen", "setting": "[2]; 0.3 mg/kg oral once daily Days 1-28 with CAR T cells", "result": "reduced tumor burden"}, {"measurement": "tumor suppression (tumor control index), Continuous regimen", "setting": "[2]; 0.3 mg/kg oral once daily Days 1-28 with CAR T cells, relative to vehicle", "result": "enhanced tumor suppression"}, {"measurement": "tumor suppression (tumor control index), Delayed regimen", "setting": "[2]; 0.3 mg/kg oral once daily Days 14-42 with CAR T cells, relative to vehicle", "result": "did not"}, {"measurement": "CAR T cell expansion, Day 15, Early or Continuous regimen", "setting": "[2]; [6]", "result": "increased CAR T cell expansion"}, {"measurement": "CD4:CD8 ratio, Day 15, Early or Continuous regimen", "setting": "[2]; [6]", "result": "increase in CD4:CD8 ratio"}, {"measurement": "CAR T cell expansion and CD4:CD8 ratio, Day 15, Delayed regimen", "setting": "[2]; single 0.3 mg/kg oral dose, relative to vehicle", "result": "did not"}, {"measurement": "populations of highly activated CAR-T cells (CD69 and PD-1 high)", "setting": "anti-CD19 CAR-T cells", "result": "increased populations of highly activated CAR-T cells"}, {"measurement": "in vivo anti-tumor effects", "setting": "[3]; continuous dosing, at least once daily for a plurality of consecutive days, with engineered T cells", "result": "improves in vivo anti-tumor effects"}, {"measurement": "CAR T cell expansion and/or persistence", "setting": "[3]; continuous presence of DGKi beginning on same day as T cell therapy", "result": "can improve CAR T cell expansion and/or persistence, in particular that of CD4+ CAR T cells"}, {"measurement": "production of IFNγ, IL-2 and TNFα", "setting": "[4]", "result": "dose-dependent increase in production of all three cytokines"}, {"measurement": "production of IFNγ, IL-2 and TNFα", "setting": "[5]", "result": "dose-dependent increase in production of all three cytokines"}]}]}
